Several values for one entry are separate records, joined by “and”; a condition that tells them apart may be missing. Equal values may be shown once.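 These data come from cells grown in 96-well plates and exposed to compound for 48 hours at five concentrations. GI50 marks 50% less growth. TGI denotes the concentration required for complete inhibition of growth.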
How the values were obtained:
Experiment in all cases: DTP human tumour cell line panel, 48 h
[1] = tested on: LOX IMVI melanoma
[2] = tested on: OVCAR-4 ovarian
[3] = tested on: T-47D breast
[4] = tested on: UACC-257 melanoma
[5] = tested on: HOP-92 NSCLC
[6] = tested on: SF-539 CNS
[7] = tested on: SK-MEL-28 melanoma
[8] = tested on: HCT-15 colon
[9] = tested on: MDA-MB-435
[10] = tested on: SR leukemia

CCC(C(=O)c1cccs1)C(O)(C(F)(F)F)C(F)(F)F (stereo unspecified) showed a TGI [1] of over 100 µM, a TGI [2] of over 100 µM and a TGI [3] of over 100 µM. For the same compound, the TGI [4] was over 100 µM, the TGI [5] was over 100 µM and the TGI [6] was over 100 µM. The TGI [7] was over 100 µM, the TGI [8] was over 100 µM and the TGI [9] was over 100 µM. The TGI [10] was over 100 µM.
COc1ccc2[nH]c3c(C)c4cc[n+](C)cc4c(C)c3c2c1 was tested, and the GI50 [1] was 3.98 µM and 3.32 µM, the TGI [1] was 37 µM [middle of 4 runs] and the GI50 [2] was 2.18 µM. For the same compound, the TGI [2] was 15.9 µM [middle of 4 runs], the GI50 [3] was 0.88 µM and 0.257 µM and 1.03 µM and the TGI [3] was 12.6 µM and 3.63 µM and 11.2 µM. The GI50 [4] was 6.27 µM and 5.41 µM, the TGI [4] was 54.5 µM [middle of 4 runs] and the GI50 [5] was 0.239 µM and 1.55 µM. For the same compound, the TGI [6] was 1.65 µM and 1.46 µM and 1.32 µM, the GI50 [7] was 3.07 µM and the TGI [7] was 10.8 µM [middle of 4 runs]. The TGI [8] was > 100 µM and 110 µM and > 250 µM, the GI50 [9] was 13.4 µM and 5.86 µM and the TGI [9] was over 88.3 µM. For the same compound, the TGI [10] was 49.1 µM and > 209 µM.
With Fc1c[c-]c(-c2ccccn2)c(F)c1.[CH3-].[Pt+2].c1ccc([PH+](c2ccccc2)c2ccccn2)cc1 the GI50 [1] was 1.28 µM, the TGI [1] was 2.69 µM and the GI50 [2] was 1.57 µM. For the same compound, the TGI [2] was 7.06 µM, the GI50 [3] was 1.13 µM and the TGI [3] was 5.78 µM. It also gave a GI50 [4] of 1.67 µM, a TGI [4] of 5.07 µM and a GI50 [5] of 1.18 µM. For the same compound, the TGI [5] was 2.68 µM, the GI50 [6] was 1.58 µM and the TGI [6] was 3.07 µM. For the same compound, the GI50 [7] was 1.64 µM, the TGI [7] was 3.15 µM and the GI50 [8] was 1.44 µM. It also gave a TGI [8] of 3.59 µM, a GI50 [9] of 1.74 µM and a TGI [9] of 3.45 µM. The GI50 [10] was 0.786 µM and the TGI [10] was 7.05 µM.
O=C(CCc1ccco1)NC1CCN(CC2(c3ccc(Cl)cc3)CCC2)CC1 gave a GI50 [1] of 13.5 µM, a TGI [1] of 27.6 µM and a GI50 [2] of 10.3 µM. It also gave a TGI [2] of 39.2 µM, a GI50 [3] of 16.2 µM and a TGI [3] of 46.6 µM. For the same compound, the GI50 [4] was 16.3 µM, the TGI [4] was 31.2 µM and the GI50 [5] was 4.69 µM. For the same compound, the TGI [5] was 20.3 µM, the GI50 [6] was 13.4 µM and the TGI [6] was 26.6 µM. For the same compound, the GI50 [7] was 15.3 µM, the TGI [7] was 29.1 µM and the GI50 [8] was 6.27 µM. It also gave a TGI [8] of 20.3 µM, a GI50 [9] of 11.8 µM and a TGI [9] of 24.1 µM. For the same compound, the GI50 [10] was 6.93 µM and the TGI [10] was 28.7 µM.
COc1cccc2c1nc1cccc(OC)c1[n+]2[O-] showed a GI50 [1] of 4.23 µM, a TGI [1] of 18.4 µM and a GI50 [2] of 4.16 µM. It also gave a TGI [2] of 20.9 µM, a GI50 [3] of 1.7 µM and a TGI [3] of 9.26 µM. For the same compound, the GI50 [4] was 13.1 µM, the TGI [4] was 35 µM and the GI50 [5] was 2.71 µM. For the same compound, the TGI [5] was 9.28 µM, the GI50 [6] was 3.91 µM and the TGI [6] was 17.3 µM. For the same compound, the GI50 [7] was 6.31 µM, the TGI [7] was 20.2 µM and the GI50 [8] was 2.93 µM. It also gave a TGI [8] of 12.7 µM, a GI50 [9] of 16.8 µM and a TGI [9] of 44.8 µM. It also gave a GI50 [10] of 0.568 µM and a TGI [10] of 4.17 µM.
CCc1nc(-n2c(CC)nc3ccccc3c2=O)nc(N)c1-c1ccc(Cl)cc1 showed a GI50 [1] of 6.91 µM, a TGI [1] of over 100 µM and a GI50 [2] of over 100 µM. It also gave a TGI [2] of over 100 µM, a GI50 [3] of over 60.4 µM and a TGI [3] of over 100 µM. It also gave a GI50 [4] of 13 µM, a TGI [4] of over 94.3 µM and a GI50 [5] of 18 µM. It also gave a TGI [5] of 99.9 µM, a GI50 [6] of 30.4 µM and a TGI [6] of over 100 µM. The GI50 [7] was over 100 µM, the TGI [7] was over 100 µM and the GI50 [8] was 8.91 µM. It also gave a TGI [8] of over 100 µM, a GI50 [9] of 7.12 µM and a TGI [9] of over 100 µM. The GI50 [10] was over 100 µM and the TGI [10] was over 100 µM.

— PubChem BioAssay (NCI)
